The record followed here is ChEMBL document CHEMBL1143200, “Design and physicochemical properties of new fluorescent ligands of protein kinase C isozymes focused on CH/pi interaction” (Bioorg Med Chem, 2008).

For orientation: Ki means a measure of affinity in units of concentration, obtained from inhibition or displacement. Higher therefore signals weaker binding.

The target in test [1] is T1, Protein kinase C epsilon type (Homo sapiens, UniProt Q02156).
T1 sequence (Q02156 whole entry): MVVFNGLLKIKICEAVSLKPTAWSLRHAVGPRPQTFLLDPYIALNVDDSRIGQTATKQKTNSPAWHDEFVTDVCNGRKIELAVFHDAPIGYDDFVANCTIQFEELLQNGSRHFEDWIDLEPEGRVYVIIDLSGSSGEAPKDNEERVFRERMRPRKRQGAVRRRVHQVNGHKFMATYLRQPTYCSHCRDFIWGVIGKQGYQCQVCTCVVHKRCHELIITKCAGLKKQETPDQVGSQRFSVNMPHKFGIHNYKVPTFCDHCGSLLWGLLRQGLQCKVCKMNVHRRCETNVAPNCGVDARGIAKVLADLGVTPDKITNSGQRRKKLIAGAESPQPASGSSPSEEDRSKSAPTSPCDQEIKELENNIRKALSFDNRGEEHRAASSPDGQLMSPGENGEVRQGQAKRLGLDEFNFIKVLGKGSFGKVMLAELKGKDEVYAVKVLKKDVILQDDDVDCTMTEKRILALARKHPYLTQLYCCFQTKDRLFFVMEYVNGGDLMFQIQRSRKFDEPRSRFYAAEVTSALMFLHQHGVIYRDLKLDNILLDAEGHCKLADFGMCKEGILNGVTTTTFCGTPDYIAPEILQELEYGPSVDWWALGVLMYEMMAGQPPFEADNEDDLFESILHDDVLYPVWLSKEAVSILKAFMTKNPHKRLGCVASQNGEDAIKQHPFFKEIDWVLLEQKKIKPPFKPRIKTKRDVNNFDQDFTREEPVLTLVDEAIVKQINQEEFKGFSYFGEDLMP
The test can be described thus: Displacement of [3H]PDBu from PKCepsilon C1B domain. In general terms: In a radioligand displacement assay an active substance lowers the binding of a labelled ligand.

Test [2] has as its target Protein kinase C delta type (Homo sapiens, UniProt Q05655). In words: Displacement of [3H]PDBu from PKCdelta C1B domain.
The target of test [3] is Protein kinase C eta type (Homo sapiens, UniProt P24723). The test can be described thus: Displacement of [3H]PDBu from PKCeta C1B domain.
Test [4] has as its target Protein kinase C theta type (Homo sapiens, UniProt Q04759). In words: Displacement of [3H]PDBu from PKCtheta C1B domain.
The target of test [5] is T2, Protein kinase C alpha type (Homo sapiens, UniProt P17252). In words: Displacement of [3H]PDBu from PKCalpha C1A domain.
Test [6] deals with T3, Protein kinase C beta type (Homo sapiens, UniProt P05771). The test can be described thus: Displacement of [3H]PDBu from PKCbeta C1B domain.
For test [7], the target named is T3, Protein kinase C beta type. The test can be described thus: Displacement of [3H]PDBu from PKCbeta C1A domain.
The target of test [8] is T2, Protein kinase C alpha type. In words: Displacement of [3H]PDBu from PKCalpha C1B domain.
Test [9] has as its target T4, Protein kinase C gamma type (Homo sapiens, UniProt P05129). The test can be described thus: Displacement of [3H]PDBu from PKCgamma C1A domain.
Test [10] deals with T4, Protein kinase C gamma type. In words: Displacement of [3H]PDBu from PKCgamma C1B domain.

Where only a bound is given, the exact number is not on record here.

Chain of Protein kinase C theta type (Q04759 whole entry, the tested form may be a part): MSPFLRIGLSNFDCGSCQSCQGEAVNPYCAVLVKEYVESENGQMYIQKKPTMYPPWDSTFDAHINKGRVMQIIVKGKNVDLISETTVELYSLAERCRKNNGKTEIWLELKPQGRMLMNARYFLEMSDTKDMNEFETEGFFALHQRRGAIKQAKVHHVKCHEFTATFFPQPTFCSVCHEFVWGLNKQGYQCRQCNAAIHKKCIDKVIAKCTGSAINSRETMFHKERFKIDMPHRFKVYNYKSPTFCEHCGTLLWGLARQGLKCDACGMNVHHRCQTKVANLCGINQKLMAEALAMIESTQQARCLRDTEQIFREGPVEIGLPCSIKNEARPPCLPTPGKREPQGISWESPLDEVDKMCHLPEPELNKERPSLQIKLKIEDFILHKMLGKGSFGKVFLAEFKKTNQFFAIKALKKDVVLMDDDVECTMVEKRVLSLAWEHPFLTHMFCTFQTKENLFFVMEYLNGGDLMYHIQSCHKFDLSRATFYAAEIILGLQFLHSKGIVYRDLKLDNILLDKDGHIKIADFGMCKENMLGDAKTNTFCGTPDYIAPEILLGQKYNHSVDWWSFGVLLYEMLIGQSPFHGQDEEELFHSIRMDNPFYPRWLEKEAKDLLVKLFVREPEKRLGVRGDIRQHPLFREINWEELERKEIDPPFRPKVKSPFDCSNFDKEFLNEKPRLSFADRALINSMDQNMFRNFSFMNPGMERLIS
Chain of Protein kinase C delta type (Q05655 whole entry, the tested form may be a part): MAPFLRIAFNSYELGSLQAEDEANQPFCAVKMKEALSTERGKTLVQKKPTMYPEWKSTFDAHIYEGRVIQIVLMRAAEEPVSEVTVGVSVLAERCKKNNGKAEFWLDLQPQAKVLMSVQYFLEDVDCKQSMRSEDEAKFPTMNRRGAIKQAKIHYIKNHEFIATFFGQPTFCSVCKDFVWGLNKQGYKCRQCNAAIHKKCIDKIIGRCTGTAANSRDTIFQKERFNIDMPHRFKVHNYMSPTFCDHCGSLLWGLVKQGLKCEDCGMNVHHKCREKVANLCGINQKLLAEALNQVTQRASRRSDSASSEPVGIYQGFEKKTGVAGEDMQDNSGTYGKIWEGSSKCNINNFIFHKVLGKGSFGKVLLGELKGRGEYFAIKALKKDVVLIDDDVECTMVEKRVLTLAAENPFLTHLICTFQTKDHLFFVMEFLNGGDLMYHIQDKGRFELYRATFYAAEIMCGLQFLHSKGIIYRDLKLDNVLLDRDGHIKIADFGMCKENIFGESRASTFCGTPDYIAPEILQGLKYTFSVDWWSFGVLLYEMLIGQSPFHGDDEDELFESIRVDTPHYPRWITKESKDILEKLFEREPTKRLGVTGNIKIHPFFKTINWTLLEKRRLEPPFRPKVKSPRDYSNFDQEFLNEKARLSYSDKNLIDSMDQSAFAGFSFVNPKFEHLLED
T3 sequence (P05771 whole entry, the tested form may be a part): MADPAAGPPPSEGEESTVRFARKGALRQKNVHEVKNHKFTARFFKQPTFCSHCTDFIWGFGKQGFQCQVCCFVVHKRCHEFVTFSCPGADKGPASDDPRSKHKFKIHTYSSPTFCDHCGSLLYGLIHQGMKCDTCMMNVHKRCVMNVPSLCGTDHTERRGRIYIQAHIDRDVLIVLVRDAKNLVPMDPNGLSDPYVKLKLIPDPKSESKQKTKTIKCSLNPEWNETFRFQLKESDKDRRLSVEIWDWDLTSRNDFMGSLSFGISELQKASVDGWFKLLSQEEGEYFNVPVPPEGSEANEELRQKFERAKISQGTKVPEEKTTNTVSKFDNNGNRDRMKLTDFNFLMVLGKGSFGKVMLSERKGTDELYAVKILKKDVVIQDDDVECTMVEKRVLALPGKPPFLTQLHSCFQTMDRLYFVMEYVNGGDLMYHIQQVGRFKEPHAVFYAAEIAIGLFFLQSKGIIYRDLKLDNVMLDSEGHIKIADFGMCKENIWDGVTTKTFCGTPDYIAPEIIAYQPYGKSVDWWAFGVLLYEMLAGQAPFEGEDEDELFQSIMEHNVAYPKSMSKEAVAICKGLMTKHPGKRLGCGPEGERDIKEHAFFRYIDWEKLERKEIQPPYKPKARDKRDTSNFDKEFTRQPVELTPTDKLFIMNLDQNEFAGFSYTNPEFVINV
Chain of Protein kinase C eta type (P24723 whole entry, the tested form may be a part): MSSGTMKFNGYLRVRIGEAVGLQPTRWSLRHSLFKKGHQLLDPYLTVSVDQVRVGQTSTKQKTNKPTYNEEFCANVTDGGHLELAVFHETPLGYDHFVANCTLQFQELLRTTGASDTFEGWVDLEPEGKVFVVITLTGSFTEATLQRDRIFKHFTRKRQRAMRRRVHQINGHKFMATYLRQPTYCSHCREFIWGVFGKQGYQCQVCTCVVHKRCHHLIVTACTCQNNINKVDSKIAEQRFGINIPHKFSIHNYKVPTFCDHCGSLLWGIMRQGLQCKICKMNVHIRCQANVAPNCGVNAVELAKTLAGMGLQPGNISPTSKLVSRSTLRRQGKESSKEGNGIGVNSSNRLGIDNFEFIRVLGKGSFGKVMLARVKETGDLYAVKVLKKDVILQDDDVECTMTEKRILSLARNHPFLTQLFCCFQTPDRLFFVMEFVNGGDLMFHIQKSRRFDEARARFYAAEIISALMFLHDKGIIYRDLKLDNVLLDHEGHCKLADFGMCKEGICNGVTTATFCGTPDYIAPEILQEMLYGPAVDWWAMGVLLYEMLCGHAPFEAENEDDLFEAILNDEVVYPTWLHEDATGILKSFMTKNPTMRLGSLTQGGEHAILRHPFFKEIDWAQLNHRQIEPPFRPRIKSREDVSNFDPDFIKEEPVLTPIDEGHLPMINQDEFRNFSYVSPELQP

Consider `CC(C)[C@H]1C(=O)N[C@H](CO)Cc2cn3nc(C(F)(F)F)c4ccc(c2c43)N1C`, for which the Ki turned out to be 80.1 nM in test [1]; 52.1 nM in test [2]; 29.7 nM in [3]; 51.1 nM in test [4]; 112 nM in test [5]; 9380 nM in test [6]. In addition, the Ki worked out at 127 nM in test [7], 721 nM in test [8], 234 nM in test [9] and 1100 nM in [10].
Regarding `CC(C)[C@H]1C(=O)N[C@H](CO)Cc2cn3ncc4ccc(c2c43)N1C`, the Ki came to 22.5 nM in test [1]; 17.7 nM in test [2]; 9.9 nM in [3]; 18.6 nM in [4]; 85.5 nM in test [5]; 5960 nM in test [6]. Also, the Ki turned out to be 88 nM in test [7], 357 nM in test [8], 61.3 nM in test [9] and 225 nM in test [10].
Take `Cc1nn2cc3c4c(ccc1c42)N(C)[C@@H](C(C)C)C(=O)N[C@H](CO)C3`: the Ki is 407 nM in test [1]; 128 nM in [2]; 223 nM in test [3]; 149 nM in test [4]; 1090 nM in [5]; > 10000 nM in [6]. The Ki in test [7] was found to be 1100 nM; in test [8], 2620 nM; in test [9] it was 1510 nM; in test [10], 2580 nM.
Regarding `CC(C)[C@H]1C(=O)N[C@H](CO)Cc2c[nH]c3cccc(c23)N1C` [INDOLACTUM], the Ki in test [6] came to 4000 nM; in [8], 140 nM.
